Literature values, collected in article doi:10.1101/435081v1 (bioRxiv, 2018).

Test system: Lb. sakei NCDO2714
Details: single peptide alone

Substance | Growth inhibition when alone
acidocin LF221A [Acd221A] | inhibited the growth
acidocin LF221B [Acd221B] | inhibited the growth
